The subject of the assay is P388 leukemia ip, CD2F1 mice, survival T/C. Briefly: NCI In Vivo Anticancer Drug Screen. Data for tumor model P388 Leukemia (intraperitoneal) in CD2F1 (CDF1) mice. As to conditions: endpoint: median survival time, higher = longer survival. In outline: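 Mice carrying the transplanted tumor received test compound or vehicle. Survival was recorded in each group, and the value is the treated-group measurement divided by that of the vehicle-treated control group.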

Where [1] appears, read: dose: 50.0 mg/kg/injection, schedule: Q01DX009 (ip), vehicle: suspension in saline.
Where [2] appears, read: dose: 100.0 mg/kg/injection, schedule: Q01DX009 (ip), vehicle: suspension in saline.
The mark [3] stands for this setting: dose: 200.0 mg/kg/injection, schedule: Q01DX009 (ip), vehicle: suspension in saline.
[4] abbreviates: dose: 50.0 mg/kg/injection, schedule: Q01DX009 (ip), vehicle: saline.
Setting [5] is: dose: 100.0 mg/kg/injection, schedule: Q01DX009 (ip), vehicle: saline.
Setting [6] is: dose: 200.0 mg/kg/injection, schedule: Q01DX009 (ip), vehicle: saline.

Molecules are shown by their SMILES. Where “and” joins values, the source holds several entries; their conditions need not be identical. Equal values may be shown once. Inconclusive results and toxic doses are left out.

Take `COC1CC(OC2C(C)OC(OC3C(C)OC(OC4CCC5(C)C(=CCC6(O)C5CC(OC(=O)c5ccc(O)cc5)C5(C)C(O)(C(C)=O)CCC65O)C4)CC3OC)CC2OC)OC(C)C1O` (stereo unspecified) (tested in a mixture with another compound): the T/C was 100 % of control (dose: 12.5 mg/kg/injection, schedule: Q01DX005 (ip), vehicle: distilled water + Tween-80 + alcohol); 94 % of control (dose: 25.0 mg/kg/injection, schedule: Q01DX005 (ip), vehicle: distilled water + Tween-80 + alcohol); 101 % of control (dose: 50.0 mg/kg/injection, schedule: Q01DX005 (ip), vehicle: distilled water + Tween-80 + alcohol); 115 % of control (dose: 100.0 mg/kg/injection, schedule: Q01DX005 (ip), vehicle: distilled water + Tween-80 + alcohol).
For `NC(=O)c1[nH]cnc1NN=NCCF`, the T/C (dose: 0.39 mg/kg/injection, schedule: Q01DX009 (ip), vehicle: distilled water + Tween-80) was 116 % of control and 122 % of control; the T/C (dose: 0.78 mg/kg/injection, schedule: Q01DX009 (ip), vehicle: distilled water + Tween-80) was 116 % of control; the T/C (dose: 1.56 mg/kg/injection, schedule: Q01DX009 (ip), vehicle: distilled water + Tween-80) is 150 % of control; the T/C (dose: 3.13 mg/kg/injection, schedule: Q01DX009 (ip), vehicle: distilled water + Tween-80) is 179 % of control; the T/C (dose: 6.25 mg/kg/injection, schedule: Q01DX009 (ip), vehicle: distilled water + Tween-80) is 175 % of control.
Turning to `C=C=CON1CCCCC1`, the T/C is 99 % of control (dose: 12.5 mg/kg/injection, schedule: Q01DX005 (ip), vehicle: saline); 104 % of control (dose: 25.0 mg/kg/injection, schedule: Q01DX005 (ip), vehicle: saline); 100 % of control and 104 % of control (dose: 50.0 mg/kg/injection, schedule: Q01DX005 (ip), vehicle: saline).
Regarding `Cc1nc2ccccc2c(=O)n1-c1ccc(-c2n[nH]c(=S)n2-c2ccccc2)cc1`, the T/C was 105 % of control (dose: 50.0 mg/kg/injection, schedule: Q01DX005 (ip), vehicle: Klucel (hydroxypropylcellulose) (HPC)); 110 % of control (dose: 100.0 mg/kg/injection, schedule: Q01DX005 (ip), vehicle: Klucel (hydroxypropylcellulose) (HPC)); 102 % of control (dose: 200.0 mg/kg/injection, schedule: Q01DX005 (ip), vehicle: Klucel (hydroxypropylcellulose) (HPC)).
As to `Fc1ccc(CSC(=S)Nc2ccc(I)cc2)cc1`, the T/C was 97 % of control under setting [1], 93 % of control under setting [2] and 103 % of control under setting [3].
As to `CC(C)C1NC(C(C)C)N2C(C(C)C)N12` (stereo unspecified), the T/C reads like this: (dose: 100.0 mg/kg/injection, schedule: Q01DX001 (ip), vehicle: Klucel (hydroxypropylcellulose) (HPC)) 100 % of control; (dose: 200.0 mg/kg/injection, schedule: Q01DX001 (ip), vehicle: Klucel (hydroxypropylcellulose) (HPC)) 100 % of control; (dose: 400.0 mg/kg/injection, schedule: Q01DX001 (ip), vehicle: Klucel (hydroxypropylcellulose) (HPC)) 106 % of control.
Regarding `ClCC(Br)CBr` (stereo unspecified), the T/C is 104 % of control (dose: 37.5 mg/kg/injection, schedule: Q01DX009 (ip), vehicle: saline with Tween-80); 100 % of control (dose: 37.5 mg/kg/injection, schedule: Q04DX003 (ip), vehicle: saline with Tween-80); 105 % of control (dose: 50.0 mg/kg/injection, schedule: Q01DX009 (ip), vehicle: saline sonified); 90 % of control (dose: 75.0 mg/kg/injection, schedule: Q04DX003 (ip), vehicle: saline with Tween-80); 104 % of control (dose: 150.0 mg/kg/injection, schedule: Q01DX009 (ip), vehicle: saline with Tween-80); 95 % of control (dose: 150.0 mg/kg/injection, schedule: Q04DX003 (ip), vehicle: saline with Tween-80).
As for `COc1cccc2c1C(=O)c1c(O)c3c(c(O)c1C2=O)C[C@@](O)(C(=O)CO)C[C@@H]3OC1CC(N)C(OC)C(C)O1` (stereo partly specified), the T/C reads like this: (dose: 0.39 mg/kg/injection, schedule: Q01DX009 (ip), vehicle: saline) 201 % of control; (dose: 0.65 mg/kg/injection, schedule: Q01DX009 (ip), vehicle: saline) 201 % of control; (dose: 1.08 mg/kg/injection, schedule: Q01DX009 (ip), vehicle: saline) 324 % of control; (dose: 1.08 mg/kg/injection, schedule: Q04DX003 (ip), vehicle: saline) 190 % of control; (dose: 1.8 mg/kg/injection, schedule: Q04DX003 (ip), vehicle: saline) 263 % of control; (dose: 3.0 mg/kg/injection, schedule: Q04DX003 (ip), vehicle: saline) 257 % of control. The T/C (dose: 3.13 mg/kg/injection, schedule: Q04DX003 (ip), vehicle: water) was 172 % of control; the T/C (dose: 5.0 mg/kg/injection, schedule: Q04DX003 (ip), vehicle: saline) was 163 % of control and 172 % of control; the T/C (dose: 12.5 mg/kg/injection, schedule: Q04DX003 (ip), vehicle: water) was 90 % of control.
Consider `Cc1ccc(N=Nc2c(C)noc2C)c(Br)c1`, for which the T/C runs as follows: (dose: 60.0 mg/kg/injection, schedule: Q01DX005 (ip), vehicle: Klucel (hydroxypropylcellulose) (HPC)) 93 % of control; (dose: 120.0 mg/kg/injection, schedule: Q01DX005 (ip), vehicle: Klucel (hydroxypropylcellulose) (HPC)) 100 % of control; (dose: 240.0 mg/kg/injection, schedule: Q01DX005 (ip), vehicle: Klucel (hydroxypropylcellulose) (HPC)) 92 % of control.
Regarding `c1ccc(Nc2ncnc3ccccc23)cc1`, the T/C (dose: 50.0 mg/kg/injection, schedule: Q01DX009 (ip), vehicle: Klucel (hydroxypropylcellulose) (HPC)) is 102 % of control; the T/C (dose: 100.0 mg/kg/injection, schedule: Q01DX009 (ip), vehicle: Klucel (hydroxypropylcellulose) (HPC)) was 102 % of control; the T/C (dose: 200.0 mg/kg/injection, schedule: Q01DX009 (ip), vehicle: Klucel (hydroxypropylcellulose) (HPC)) is 112 % of control.
As to `COc1nc(=O)n(C2OC(=O)C(C)(C)C2=O)cc1F` (stereo unspecified), the T/C (dose: 11.25 mg/kg/injection, schedule: Q04DX002 (ip), vehicle: distilled water + Tween-80) was 100 % of control; the T/C (dose: 22.5 mg/kg/injection, schedule: Q04DX002 (ip), vehicle: distilled water + Tween-80) is 106 % of control; the T/C (dose: 45.0 mg/kg/injection, schedule: Q04DX002 (ip), vehicle: distilled water + Tween-80) is 100 % of control; the T/C (dose: 90.0 mg/kg/injection, schedule: Q04DX002 (ip), vehicle: distilled water + Tween-80) was 106 % of control; the T/C (dose: 180.0 mg/kg/injection, schedule: Q04DX002 (ip), vehicle: distilled water + Tween-80) was 96 % of control; the T/C (dose: 360.0 mg/kg/injection, schedule: Q04DX002 (ip), vehicle: distilled water + Tween-80) is 100 % of control.
Regarding `CC(=O)C(C)P(=O)(O)O` (stereo unspecified), the T/C by setting is: under setting [4], 99 % of control; under setting [5], 101 % of control; under setting [6], 106 % of control.
For `Fc1ccc(NC(=S)SCc2ccc(Cl)cc2)c(F)c1`, the T/C under setting [1] is 93 % of control, the T/C under setting [2] is 100 % of control and the T/C under setting [3] is 100 % of control.
Take `COC(=O)C1CCCCC1C(=O)OC` (stereo unspecified): the T/C (dose: 12.5 mg/kg/injection, schedule: Q01DX009 (ip), vehicle: saline) is 108 % of control; the T/C (dose: 25.0 mg/kg/injection, schedule: Q01DX009 (ip), vehicle: saline) is 104 % of control and 111 % of control; the T/C under setting [4] is 104 % of control; the T/C under setting [5] was 100 % of control and 101 % of control (2×); the T/C under setting [6] is 110 % of control.
As for `O=c1oc(-c2ccc(Cl)cc2Cl)nc2cc(Cl)ccc12`, the T/C is, setting by setting: (dose: 60.0 mg/kg/injection, schedule: Q01DX005 (ip), vehicle: saline with Tween-80) 104 % of control; (dose: 120.0 mg/kg/injection, schedule: Q01DX005 (ip), vehicle: saline with Tween-80) 112 % of control.
In the case of `COc1cc(C(=O)c2c(OC)cccc2C(=O)O)c(OC)cc1C`, the T/C reads like this: (dose: 25.0 mg/kg/injection, schedule: Q01DX009 (ip), vehicle: saline with Tween-80) 101 % of control; (dose: 50.0 mg/kg/injection, schedule: Q01DX009 (ip), vehicle: saline with Tween-80) 105 % of control; (dose: 100.0 mg/kg/injection, schedule: Q01DX009 (ip), vehicle: saline with Tween-80) 110 % of control; (dose: 200.0 mg/kg/injection, schedule: Q01DX009 (ip), vehicle: saline with Tween-80) 99 % of control; (dose: 400.0 mg/kg/injection, schedule: Q01DX009 (ip), vehicle: saline with Tween-80) 99 % of control.

The values are drawn from PubChem BioAssay AID330 (DTP/NCI, 2004).
